{"source": "paper PMC5539197", "about": "“CD14 is critical for TLR2-mediated M1 macrophage activation triggered by N-glycan recognition” (Scientific Reports, 2017)", "biological_target": "T1, ArtinM (Artocarpus integer, UniProt Q7M1T4)", "T1 construct": "tetramer", "T1 sequence (Q7M1T4 1-149)": "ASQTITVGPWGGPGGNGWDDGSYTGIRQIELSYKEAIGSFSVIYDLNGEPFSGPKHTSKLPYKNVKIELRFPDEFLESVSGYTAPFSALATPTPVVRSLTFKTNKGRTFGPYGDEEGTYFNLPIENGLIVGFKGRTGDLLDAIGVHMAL", "experiment": "inhibition of lectin precipitation, western blot", "format": "binding", "conditions": "1 mM trimannoside pre-incubated, 4 °C; lysate of HEK cells transfected with CD14 or TLR2; carbohydrate recognition site, competes with glycoprotein N-glycans", "description": "inhibition of lectin precipitation, western blot on […] | CD14 and TLR2 were not detected when the procedure was carried out with […]"}
{"molecule": "OC[C@H]1O[C@H](OC[C@H]2OC(O)[C@@H](O)[C@@H](O[C@H]3O[C@H](CO)[C@@H](O)[C@H](O)[C@@H]3O)[C@@H]2O)[C@@H](O)[C@@H](O)[C@@H]1O", "note": "(stereo partly shown) [Manα1-3(Manα1-6)Man]", "values": [{"measurement": "inhibition of lectin precipitation, western blot", "value": "CD14 and TLR2 were not detected when the procedure was carried out with ArtinM"}]}
